Reference: publication PMC7315563, “Bioactive fluorenes. Part III: 2,7-dichloro-9H-fluorene-based thiazolidinone and azetidinone analogues as anticancer and antimicrobial against multidrug resistant strains agents” (BMC Chemistry, 2020)
In brackets after ≈: the same amount, converted by molar mass. Each block holds one compound with its values, some of them ahead of it.

Tests used:
[1] = test system: A549 human lung cancer cells; assay: cell viability assay (MTT); format: cell-based; conditions: 24 h; for viability at 1 µg/mL: read-out: Validity (%) for sample concentrations (µg/mL) 1; for viability at 10 µg/mL: read-out: Validity (%) for sample concentrations (µg/mL) 10; for viability at 31.25 µg/mL: read-out: Validity (%) for sample concentrations (µg/mL) 31.25; for viability at 62.5 µg/mL: 62.50 µg/mL, read-out: Validity (%) for sample concentrations (µg/mL) 62.50; for viability at 125 µg/mL: read-out: Validity (%) for sample concentrations (µg/mL) 125; for viability at 250 µg/mL: read-out: Validity (%) for sample concentrations (µg/mL) 250; for viability at 500 µg/mL: read-out: Validity (%) for sample concentrations (µg/mL) 500; for viability at 1000 µg/mL: read-out: Validity (%) for sample concentrations (µg/mL) 1000
S. aureus = assay: MIC by broth microdilution method (resazurin end point); format: cell-based; conditions: Staphylococcus aureus; S. aureus; 24 h at 37 °C; read-out: MIC
Procedure: (§1) Determination of Minimum inhibitory concentrations (MIC) of flourene derivatives was done using broth microdilution method. The procedure involved preparation of twofold dilutions of the fluorene derivatives ranging from (500–7.8 μg/mL) in sterile Mueller–Hinton broth inside the wells of 96-well microplate (Sarstedt, Germany). The inoculums of test strains prepared from fresh overnight cultures were adjusted to 0.5 McFarland standards, which equals to 1–2 × 10^8 CFU/mL for bacteria, the procedure was done according to CLSI 2012 [42]. […] For this assay the positive control agents were vancomycin (range: 0.7–50 μg/mL), gentamicin (range: 0.15–10 μg/mL) and the negative control was 1% DMSO.
(§2) For proper determination of the MIC end point resazurin dye has been used. A stock solution of resazurin sodium salt powder (Titan Biotech) was prepared at 0.02% (wt/vol) in distilled water, sterilized by filtration through a […] filter into a sterile light protected container then stored protected from light at 4 °C for up to 1 week, or at − […] for long term use, then 10–15% resazurin solution of the total volume in wells was added to each well and incubation for 1–4 h at 37 °C was done. A change in color from blue to pink indicates the growth of bacteria, and MIC was defined as the lowest concentration of the drug that prevented this change in color.

MRSA = assay: as above; format: cell-based; conditions: Staphylococcus aureus, 24 h at 37 °C, read-out: MIC
Procedure: as §1, §2

E. coli = assay: as above; format: cell-based; conditions: Escherichia coli, 24 h at 37 °C
Procedure: as §1, §2

[2] = test system: Klebsiella pneumoniae (K. pneumoniae), multidrug resistant clinical isolate; assay: agar well diffusion assay; format: cell-based; conditions: 24 h, 500 µg/mL of tested compound
Procedure, shortened: (§3)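 Multidrug-resistant clinical isolates swabbed on Mueller–Hinton agar at about 1–5 × 10^5 CFU/mL; 0.5 cm wells received 50 μL compound at 500 μg/mL in 1% DMSO. Incubation 24 h, 37 °C for bacteria and C. albicans, 25 °C for Aspergillus; inhibition zone diameter measured in mm.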

[3] = test system: Staphylococcus aureus (S. aureus), multidrug resistant clinical isolate; assay: agar well diffusion assay; format: cell-based; conditions: Staphylococcus aureus; S. aureus; 500 µg/mL of tested compound; 24 h
Procedure, shortened: as §3

[4] = test system: methicillin-resistant Staphylococcus aureus (MRSA); assay: agar well diffusion assay; format: cell-based; conditions: Staphylococcus aureus, 500 µg/mL of tested compound, 24 h
Procedure, shortened: as §3

[5] = test system: Escherichia coli (E. coli), multidrug resistant clinical isolate; assay: agar well diffusion assay; format: cell-based; conditions: 24 h, 500 µg/mL of tested compound
Procedure, shortened: as §3

[6] = test system: Pseudomonas aeruginosa (P. aeruginosa), multidrug resistant clinical isolate; assay: agar well diffusion assay; format: cell-based; conditions: 24 h, 500 µg/mL of tested compound
Procedure, shortened: as §3

[7] = test system: MDA-MB-231 human breast cancer cells; assay: cell viability assay (MTT); format: cell-based; conditions: 24 h; for viability at 1 µg/mL: read-out: Validity (%) for sample concentrations (µg/mL) 1; for viability at 10 µg/mL: read-out: Validity (%) for sample concentrations (µg/mL) 10; for viability at 31.25 µg/mL: read-out: Validity (%) for sample concentrations (µg/mL) 31.25; for viability at 62.5 µg/mL: read-out: Validity (%) for sample concentrations (µg/mL) 62.5; for viability at 125 µg/mL: read-out: Validity (%) for sample concentrations (µg/mL) 125; for viability at 250 µg/mL: read-out: Validity (%) for sample concentrations (µg/mL) 250; for viability at 500 µg/mL: read-out: Validity (%) for sample concentrations (µg/mL) 500
Procedure, shortened: (§4)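 Seeding at 5000 cells/well in RPMI-1640 plus 10% inactivated FBS; treatment the following day with compound in fresh medium over 0–500 µg/mL; 24 h incubation; MTT viability with absorbance taken at […].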

[8] = test system: WI-38 human normal fibroblast cells; assay: cell viability assay (MTT); format: cell-based; conditions: 24 h; for viability at 31.25 µg/mL: read-out: Validity (%) for sample concentrations (µg/mL) 31.25; for viability at 62.5 µg/mL: 62.50 µg/mL, read-out: Validity (%) for sample concentrations (µg/mL) 62.50; for viability at 125 µg/mL: read-out: Validity (%) for sample concentrations (µg/mL) 125; for viability at 250 µg/mL: read-out: Validity (%) for sample concentrations (µg/mL) 250; for viability at 500 µg/mL: read-out: Validity (%) for sample concentrations (µg/mL) 500
Procedure, shortened: as §4

P. aeruginosa = assay: MIC by broth microdilution method (resazurin end point); format: cell-based; conditions: Pseudomonas aeruginosa, 24 h at 37 °C
Procedure: as §1, §2

[9] = test system: Acinetobacter baumannii (A. baumannii), multidrug resistant clinical isolate; assay: agar well diffusion assay; format: cell-based; conditions: 500 µg/mL of tested compound, 24 h
Procedure, shortened: as §3

IC50 [1]: 192 µg/mL (≈ 353 µM)
melting point: 95 to 97 °C
MIC (S. aureus): 62.5 µg/mL (≈ 115 µM)
MIC (MRSA): 31.2 µg/mL (≈ 57.5 µM)
MIC (E. coli): 31.2 µg/mL (≈ 57.5 µM)
IC50 [7]: > 500 µg/mL
SMILES: COc1cc(C2C(Cl)C(=O)N2c2nc(-c3cc(Cl)cc4c3-c3ccc(Cl)cc3C4)cs2)ccc1O (centres unmarked) [6h, 3-chloro-1-(4-(2,7-dichloro-9H-fluoren-4-yl)thiazol-2-yl)-4-(4-hydroxy-3-methoxyphenyl)azetidin-2-one]
viability at 1 µg/mL [1]: 89.5%
viability at 10 µg/mL [1]: 80.9%
viability at 31.25 µg/mL [1]: 79%
viability at 62.5 µg/mL [1]: 75.8%
viability at 125 µg/mL [1]: 63.5%
viability at 250 µg/mL [1]: 37.9%
viability at 500 µg/mL [1]: 33%
viability at 1000 µg/mL [1]: 30.3%
zone of inhibition at 500 µg/mL [2]: 3 mm
zone of inhibition at 500 µg/mL [3]: 12 mm
zone of inhibition at 500 µg/mL [4]: 15 mm
zone of inhibition at 500 µg/mL [5]: 22 mm
zone of inhibition at 500 µg/mL [6]: 8 mm
viability at 1 µg/mL [7]: 94.3%
viability at 10 µg/mL [7]: 90.4%
viability at 31.25 µg/mL [7]: 85.8%
viability at 62.5 µg/mL [7]: 77.8%
viability at 125 µg/mL [7]: 73.6%
viability at 250 µg/mL [7]: 68.5%
viability at 500 µg/mL [7]: 65.8%
viability at 31.25 µg/mL [8]: 85%
viability at 62.5 µg/mL [8]: 70.6%
viability at 125 µg/mL [8]: 60.4%
viability at 250 µg/mL [8]: 51.8%
viability at 500 µg/mL [8]: 49.4%
IC50 [8]: 487 µg/mL (≈ 895 µM)

IC50 [1]: 95 µg/mL (≈ 195 µM)
melting point: 105 to 107 °C
MIC (S. aureus): 31.2 µg/mL (≈ 64.2 µM)
MIC (MRSA): 31.2 µg/mL (≈ 64.2 µM)
MIC (E. coli): 31.2 µg/mL (≈ 64.2 µM)
MIC (P. aeruginosa): 125 µg/mL (≈ 257 µM)
IC50 [7]: > 500 µg/mL
SMILES: O=C1C(Cl)C(c2ccc[nH]2)N1c1nc(-c2cc(Cl)cc3c2-c2ccc(Cl)cc2C3)cs1 (centres unmarked) [6l, 3-Chloro-1-(4-(2,7-dichloro-9H-fluoren-4-yl)thiazol-2-yl)-4-(1H-pyrrol-2-yl)azetidin-2-one]
viability at 1 µg/mL [1]: 85%
viability at 10 µg/mL [1]: 72.2%
viability at 31.25 µg/mL [1]: 58.1%
viability at 62.5 µg/mL [1]: 53.6%
viability at 125 µg/mL [1]: 43.1%
viability at 250 µg/mL [1]: 34%
viability at 500 µg/mL [1]: 30.3%
viability at 1000 µg/mL [1]: 27.9%
zone of inhibition at 500 µg/mL [3]: 15 mm
zone of inhibition at 500 µg/mL [4]: 15 mm
zone of inhibition at 500 µg/mL [5]: 22 mm
zone of inhibition at 500 µg/mL [6]: 8 mm
viability at 1 µg/mL [7]: 96.9%
viability at 10 µg/mL [7]: 90.4%
viability at 31.25 µg/mL [7]: 85.5%
viability at 62.5 µg/mL [7]: 71.9%
viability at 125 µg/mL [7]: 69.8%
viability at 250 µg/mL [7]: 66.7%
viability at 500 µg/mL [7]: 60.9%
viability at 31.25 µg/mL [8]: 94%
viability at 62.5 µg/mL [8]: 76.4%
viability at 125 µg/mL [8]: 70.2%
viability at 250 µg/mL [8]: 52.5%
viability at 500 µg/mL [8]: 39%
IC50 [8]: 350 µg/mL (≈ 719 µM)

IC50 [1]: 159 µg/mL (≈ 290 µM)
melting point: 175 to 177 °C
MIC (E. coli): 31.2 µg/mL (≈ 56.9 µM)
MIC (P. aeruginosa): 62.5 µg/mL (≈ 114 µM)
IC50 [7]: > 500 µg/mL
SMILES: O=C1C(Cl)C(c2ccnc3ccccc23)N1c1nc(-c2cc(Cl)cc3c2-c2ccc(Cl)cc2C3)cs1 (centres unmarked) [6n, 3-chloro-1-(4-(2,7-dichloro-9H-fluoren-4-yl)thiazol-2-yl)-4-(quinolin-4-yl)azetidin-2-one]
viability at 1 µg/mL [1]: 93.3%
viability at 10 µg/mL [1]: 83.6%
viability at 31.25 µg/mL [1]: 67.9%
viability at 62.5 µg/mL [1]: 64.2%
viability at 125 µg/mL [1]: 52.7%
viability at 250 µg/mL [1]: 43.2%
viability at 500 µg/mL [1]: 39.1%
viability at 1000 µg/mL [1]: 36.3%
zone of inhibition at 500 µg/mL [2]: 5 mm
zone of inhibition at 500 µg/mL [3]: 9 mm
zone of inhibition at 500 µg/mL [9]: 5 mm
zone of inhibition at 500 µg/mL [5]: 19 mm
zone of inhibition at 500 µg/mL [6]: 13 mm
viability at 1 µg/mL [7]: 96.2%
viability at 10 µg/mL [7]: 89.5%
viability at 31.25 µg/mL [7]: 86.8%
viability at 62.5 µg/mL [7]: 81.3%
viability at 125 µg/mL [7]: 73.2%
viability at 250 µg/mL [7]: 67.1%
viability at 500 µg/mL [7]: 59.2%
viability at 31.25 µg/mL [8]: 98.6%
viability at 62.5 µg/mL [8]: 85.9%
viability at 125 µg/mL [8]: 53.2%
viability at 250 µg/mL [8]: 43.3%
viability at 500 µg/mL [8]: 39.8%
IC50 [8]: 212 µg/mL (≈ 386 µM)
